Test results: US10676479B2, “Imidazolepyridine compounds and uses thereof” (Novartis AG, priority 2016, dated 2020)

Legend:
EED (1-441)-His protein = EED (1-441)-His protein (Homo sapiens (Human), UniProt O75530); assay: EED-H3K27Me3 peptide competition binding assay by AlphaScreen; details: EED Alphascreen binding Qualified assay
[1] = target: wild type PRC2 (wtPRC2) complex (Homo sapiens (Human), UniProt O75530); assay: EED LC-MS assay; assay type: biochemical; details: EED LC-MS Qualified assay; read-out: (b) IC50
Sequence of wild type PRC2 (wtPRC2) complex (O75530 whole entry): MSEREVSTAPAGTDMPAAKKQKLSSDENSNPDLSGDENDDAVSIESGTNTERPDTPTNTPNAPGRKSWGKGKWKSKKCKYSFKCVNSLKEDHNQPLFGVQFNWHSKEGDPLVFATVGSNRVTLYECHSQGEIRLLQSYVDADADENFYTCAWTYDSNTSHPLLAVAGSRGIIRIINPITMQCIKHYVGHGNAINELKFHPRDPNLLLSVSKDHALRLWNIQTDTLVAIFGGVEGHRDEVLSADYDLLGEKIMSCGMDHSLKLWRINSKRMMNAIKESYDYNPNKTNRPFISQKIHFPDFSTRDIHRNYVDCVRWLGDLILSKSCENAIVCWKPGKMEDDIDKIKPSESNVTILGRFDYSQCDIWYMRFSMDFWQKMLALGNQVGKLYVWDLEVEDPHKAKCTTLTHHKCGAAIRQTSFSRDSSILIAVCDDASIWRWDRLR
Sequence of wild type PRC2 (wtPRC2) complex (Q15910 whole entry partner): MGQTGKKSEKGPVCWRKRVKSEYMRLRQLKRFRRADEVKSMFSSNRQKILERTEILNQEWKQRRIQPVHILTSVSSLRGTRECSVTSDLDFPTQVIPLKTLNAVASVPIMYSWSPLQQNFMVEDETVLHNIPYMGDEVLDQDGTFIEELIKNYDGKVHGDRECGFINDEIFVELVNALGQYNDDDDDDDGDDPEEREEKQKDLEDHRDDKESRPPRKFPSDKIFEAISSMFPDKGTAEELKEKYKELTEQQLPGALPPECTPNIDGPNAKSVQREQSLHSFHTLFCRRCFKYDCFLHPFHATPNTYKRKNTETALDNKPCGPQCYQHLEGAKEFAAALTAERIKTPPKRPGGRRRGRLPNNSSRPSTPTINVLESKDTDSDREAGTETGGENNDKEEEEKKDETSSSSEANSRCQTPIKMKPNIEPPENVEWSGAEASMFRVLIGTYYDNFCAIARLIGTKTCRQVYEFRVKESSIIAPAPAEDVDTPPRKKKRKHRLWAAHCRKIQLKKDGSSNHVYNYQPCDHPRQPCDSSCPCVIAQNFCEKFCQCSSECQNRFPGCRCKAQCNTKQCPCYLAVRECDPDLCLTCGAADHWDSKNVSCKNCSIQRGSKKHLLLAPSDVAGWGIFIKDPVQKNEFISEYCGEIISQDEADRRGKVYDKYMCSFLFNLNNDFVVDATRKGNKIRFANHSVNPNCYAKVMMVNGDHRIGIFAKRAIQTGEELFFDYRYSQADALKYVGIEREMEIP
Sequence of wild type PRC2 (wtPRC2) complex (Q15022 whole entry partner): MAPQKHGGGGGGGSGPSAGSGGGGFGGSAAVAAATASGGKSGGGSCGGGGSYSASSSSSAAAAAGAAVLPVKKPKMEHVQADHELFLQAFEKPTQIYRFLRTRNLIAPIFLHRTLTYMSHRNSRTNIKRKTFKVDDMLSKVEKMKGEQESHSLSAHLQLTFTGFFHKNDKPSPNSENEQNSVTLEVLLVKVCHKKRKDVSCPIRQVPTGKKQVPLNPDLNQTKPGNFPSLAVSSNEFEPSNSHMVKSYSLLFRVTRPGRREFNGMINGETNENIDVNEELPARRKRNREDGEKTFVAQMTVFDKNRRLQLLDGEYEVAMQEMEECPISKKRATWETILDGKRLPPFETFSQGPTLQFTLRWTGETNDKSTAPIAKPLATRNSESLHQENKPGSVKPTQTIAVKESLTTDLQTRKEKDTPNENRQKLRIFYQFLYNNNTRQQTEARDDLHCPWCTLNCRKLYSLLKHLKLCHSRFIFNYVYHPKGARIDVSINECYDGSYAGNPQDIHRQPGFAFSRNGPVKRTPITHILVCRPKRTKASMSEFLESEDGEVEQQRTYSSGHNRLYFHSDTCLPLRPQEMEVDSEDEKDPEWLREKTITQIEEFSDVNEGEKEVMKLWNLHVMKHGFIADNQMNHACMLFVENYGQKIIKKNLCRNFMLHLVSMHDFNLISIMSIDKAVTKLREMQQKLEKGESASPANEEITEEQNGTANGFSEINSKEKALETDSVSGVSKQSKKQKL
Procedure: EED LC-MS Assay Representative compounds of the present invention were serially and separately diluted 3-fold in DMSO to obtain a total of eight or twelve concentrations. […] A 6 μL solution of 3 μM of the peptide substrate H3K27Me0 (histone H3[21-44]-biotin) in reaction buffer was added to initiate each reaction. […] The data were then fit to a dose response equation using the program Helios to get the IC50 values of the test compound.

[2] = test system: H3K27 methylation in G401 cell; assay: ELISA (H3K27 methylation) assay; assay type: cell-based; details: Homo sapiens, G-401, ELISA Qualified assay, 48 h, read-out: (c) IC50
In short: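 G401 cells given 3-fold serial dilutions (eight or twelve points, top 20 μM) for 48 h. Lysate ELISA for H3K27 methylation normalized to H3 signal, % inhibition versus DMSO, IC50 from dose-response fit.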

Sequence of EED (1-441)-His protein (O75530 whole entry): as the sequence (O75530 whole entry) above

| Compound | IC50 (EED (1-441)-His protein) [nM] | IC50 [1] [nM] | IC50 [2] [nM] |
| --- | --- | --- | --- |
| CN(C)S(=O)(=O)c1ccc(-c2cnc(NCc3c(F)ccc4c3CCO4)n3cncc23)cc1 [Example 18, 4-(5-(((5-fluoro-2,3-dihydrobenzofuran-4-yl)methyl)amino)imidazo[1,5-c]pyrimidin-8-yl)-N,N-dimethylbenzenesulfonamide] | 10.1 | 15.1 | 46 |
| Cc1nc(N2CC(C)NC(C)C2)ncc1-c1cnc(NCc2c(F)ccc3c2CCO3)n2cnc(C#N)c12 (stereo not drawn) [Example 83, 8-(2-(3,5-dimethylpiperazin-1-yl)-4-methylpyrimidin-5-yl)-5-(((5-fluoro-2,3-dihydrobenzofuran-4-yl)methyl)amino)imidazo[1,5-c]pyrimidine-1-carbonitrile] | 2.3 | 5.7 | 13.1 |
| CC(C)S(=O)(=O)c1ccc(-c2cnc(NCc3c(F)ccc4c3CCO4)n3cncc23)cc1 [Example 30, N-((5-fluoro-2,3-dihydrobenzofuran-4-yl)methyl)-8-(4-(isopropylsulfonyl)phenyl)imidazo[1,5-c]pyrimidin-5-amine] | 7.7 | 11.1 | 19.5 |
| CN(C)Cc1ccc(-c2cnc(NCc3c(F)ccc4c3CCO4)n3cncc23)cc1 [Example 17, 8-(4-((dimethylamino)methyl)phenyl)-N-((5-fluoro-2,3-dihydrobenzofuran-4-yl)methyl)imidazo[1,5-c]pyrimidin-5-amine] | 12.6 | 25.7 | 32.1 |
| CCOC(=O)c1ncn2c(NCc3cc(OC)c(F)cc3F)ncc(-c3ccc(S(=O)(=O)N(C)C)cc3)c12 [Example 97, ethyl 5-((2,4-difluoro-5-methoxybenzyl)amino)-8-(4-(N,N-dimethylsulfamoyl)phenyl)imidazo[1,5-c]pyrimidine-1-carboxylate] | 19.6 | 16.7 | 200 |
| CCOC(=O)c1ncn2c(NCc3c(F)cccc3OC)ncc(-c3cccnc3C)c12 [Example 99, ethyl 5-((2-fluoro-6-methoxybenzyl)amino)-8-(2-methylpyridin-3-yl)imidazo[1,5-c]pyrimidine-1-carboxylate] | 16 | 14.6 | 68.6 |
| CCOC(=O)c1ncn2c(NCc3c(F)ccc4c3CCO4)ncc(-c3ccc(C)nc3C)c12 [Example 93, ethyl 8-(2,6-dimethylpyridin-3-yl)-5-(((5-fluoro-2,3-dihydrobenzofuran-4-yl)methyl)amino)imidazo[1,5-c]pyrimidine-1-carboxylate] | 4.9 | 5.7 | 5.1 |
| Fc1ccc2c(c1CNc1ncc(-c3ccncc3)c3cncn13)CCO2 [Example 20, N-((5-fluoro-2,3-dihydrobenzofuran-4-yl)methyl)-8-(pyridin-4-yl)imidazo[1,5-c]pyrimidin-5-amine] | 21.2 | 44.1 | 81.1 |
| CC(=O)N1CCN(c2ccc(-c3cnc(NCc4c(F)ccc5c4CCO5)n4cnc(C#N)c34)cn2)CC1 [Example 87, 8-(6-(4-acetylpiperazin-1-yl)pyridin-3-yl)-5-(((5-fluoro-2,3-dihydrobenzofuran-4-yl)methyl)amino)imidazo[1,5-c]pyrimidine-1-carbonitrile] | 17 | 29.7 | 13.4 |
| c1cc(CNc2ncc(-c3ccncc3)c3cncn23)c2ccoc2c1 [Example 65, N-(benzofuran-4-ylmethyl)-8-(pyridin-4-yl)imidazo[1,5-c]pyrimidin-5-amine] | 285 | 93.2 | 641 |
| Cc1ncc(-c2cnc(NCc3c(F)ccc4c3CCO4)n3cnc(S(=O)(=O)c4ccccc4)c23)c(C)n1 [Example 15, 8-(2,4-dimethylpyrimidin-5-yl)-N-((5-fluoro-2,3-dihydrobenzofuran-4-yl)methyl)-1-(phenylsulfonyl)imidazo[1,5-c]pyrimidin-5-amine] | 15.2 | 29.8 | 7.8 |
| Cc1ncccc1-c1cnc(NCc2c(F)ccc3c2CCO3)n2cnc(C(=O)N(C)C)c12 [Example 105, 5-(((5-fluoro-2,3-dihydrobenzofuran-4-yl)methyl)amino)-N,N-dimethyl-8-(2-methylpyridin-3-yl)imidazo[1,5-c]pyrimidine-1-carboxamide] | 10.8 | 30.4 | 40.1 |
| N#Cc1ncn2c(NCc3c(F)ccc4c3CCO4)ncc(-c3ccc(N4CCOCC4)nc3)c12 [Example 82, 5-(((5-fluoro-2,3-dihydrobenzofuran-4-yl)methyl)amino)-8-(6-morpholinopyridin-3-yl)imidazo[1,5-c]pyrimidine-1-carbonitrile] | 8.3 | 18.1 | 6.8 |
| CCOC(=O)c1ncn2c(NCc3c(F)ccc4c3CCO4)ncc(-c3ccc(S(C)(=O)=O)cc3)c12 [Example 92, ethyl 5-(((5-fluoro-2,3-dihydrobenzofuran-4-yl)methyl)amino)-8-(4-(methylsulfonyl)phenyl)imidazo[1,5-c]pyrimidine-1-carboxylate] | 5.4 | 5.9 | 0.7 |
| Cc1ncncc1-c1cnc(NCc2c(F)ccc3c2CCO3)n2cncc12 [Example 47, N-((5-fluoro-2,3-dihydrobenzofuran-4-yl)methyl)-8-(4-methylpyrimidin-5-yl)imidazo[1,5-c]pyrimidin-5-amine] | 8.1 | 14.3 | 42.4 |
| Cc1ncc(-c2cnc(NCc3c(F)ccc4c3CCO4)n3cnc(CO)c23)c(C)n1 [Example 8, (8-(2,4-Dimethylpyrimidin-5-yl)-5-(((5-fluoro-2,3-dihydrobenzofuran-4-yl)methyl)amino)imidazo[1,5-c]pyrimidin-1-yl)methanol] | 11.6 | 18.6 | 30.4 |
| Cc1ncccc1-c1cnc(NCc2c(F)ccc3c2CCO3)n2cnc(C(=O)NCCO)c12 [Example 107, 5-(((5-fluoro-2,3-dihydrobenzofuran-4-yl)methyl)amino)-N-(2-hydroxyethyl)-8-(2-methylpyridin-3-yl)imidazo[1,5-c]pyrimidine-1-carboxamide] | 7.7 | 6.9 | 25.6 |
| CCOC(=O)c1ncn2c(NCc3c(F)ccc4c3CCO4)ncc(Br)c12 [Example 91, ethyl 8-bromo-5-(((5-fluoro-2,3-dihydrobenzofuran-4-yl)methyl)amino)imidazo[1,5-c]pyrimidine-1-carboxylate] | 8.5 | 8 | 32 |
| Cc1cnccc1-c1cnc(NCc2c(F)ccc3c2CCO3)n2cncc12 [Example 36, N-((5-fluoro-2,3-dihydrobenzofuran-4-yl)methyl)-8-(3-methylpyridin-4-yl)imidazo[1,5-c]pyrimidin-5-amine] | 7.6 | 17.9 | 51.3 |
| Cc1ncccc1-c1cnc(NCc2c(F)ccc3c2CCO3)n2cnc(C(=O)NN)c12 [Example 108, 5-(((5-fluoro-2,3-dihydrobenzofuran-4-yl)methyl)amino)-8-(2-methylpyridin-3-yl)imidazo[1,5-c]pyrimidine-1-carbohydrazide] | 7 | 13.6 | 13.1 |
| Cc1nc(C(F)F)ccc1-c1cnc(NCc2c(F)ccc3c2CCO3)n2cncc12 [Example 57, 8-(6-(difluoromethyl)-2-methylpyridin-3-yl)-N-((5-fluoro-2,3-dihydrobenzofuran-4-yl)methyl)imidazo[1,5-c]pyrimidin-5-amine] | 7.5 | 12.5 | 54.1 |
| c1cc(CNc2ncc(-c3ccc(N4CCNCC4)nc3)c3cncn23)c2ccoc2c1 [Example 66, N-(benzofuran-4-ylmethyl)-8-(6-(piperazin-1-yl)pyridin-3-yl)imidazo[1,5-c]pyrimidin-5-amine] | 72.1 | 49.3 | 444 |
| CCOC(=O)c1ncn2c(NCc3cc(OC)c(F)cc3F)ncc(-c3ccc(S(C)(=O)=O)cc3)c12 [Example 7, Ethyl 5-((2,4-difluoro-5-methoxybenzyl)amino)-8-(4-(methylsulfonyl)phenyl)imidazo[1,5-c]pyrimidine-1-carboxylate] | 16.8 | 16.8 | 236 |
| Cc1ccc(-c2cnc(NCc3c(F)ccc4c3CCO4)n3cnc(C#N)c23)cn1 [Example 72, 5-(((5-fluoro-2,3-dihydrobenzofuran-4-yl)methyl)amino)-8-(6-methylpyridin-3-yl)imidazo[1,5-c]pyrimidine-1-carbonitrile] | 10.8 | 20.3 | 22 |
| CC(c1ccc(-c2cnc(NCc3c(F)ccc4c3CCO4)n3cnc(C#N)c23)cc1)N1CCCC1 (stereo not drawn) [Example 76, 5-(((5-fluoro-2,3-dihydrobenzofuran-4-yl)methyl)amino)-8-(4-(1-(pyrrolidin-1-yl)ethyl)phenyl)imidazo[1,5-c]pyrimidine-1-carbonitrile] | 5.6 | 15.3 | 5.4 |
| CN(C)c1ccc(-c2cnc(NCc3c(F)ccc4c3CCO4)n3cncc23)cn1 [Example 41, 8-(6-(dimethylamino)pyridin-3-yl)-N-((5-fluoro-2,3-dihydrobenzofuran-4-yl)methyl)imidazo[1,5-c]pyrimidin-5-amine] | 41.2 | 14.6 | 51.2 |
| Fc1ccc2c(c1CNc1ncc(-c3ccc(CN4CCCC4)cc3)c3cncn13)CCO2 [Example 39, N-((5-fluoro-2,3-dihydrobenzofuran-4-yl)methyl)-8-(4-(pyrrolidin-1-ylmethyl)phenyl)imidazo[1,5-c]pyrimidin-5-amine] | 10.5 | 10.1 | 31 |
